Test results reported in US11016085B2, “ZNT8 assays for drug development and pharmaceutical compositions” (THE JOHNS HOPKINS UNIVERSITY, priority 2016, dated 2021).
Entries after “also recorded” stand apart in the source; their conditions may differ.

Experiments:
human ZnT8 W325 (W-form) = target: T1, human ZnT8 W325 (W-form) (Homo sapiens, UniProt Q8IWU4, R325W); experiment: Stopped-flow zinc transport kinetics in reconstituted proteoliposomes (Fluozin-3), W325 variant; assay type: biochemical; details: for effect on zinc transport activity (Vmax), W-form: lipid in reconstituted proteoliposomes, reference level = Vmax of the AA-form; for increase of Vmax, W-form: third anionic phospholipid added to DOPC:DOPE (2:1), giving 2:1:1
T1 construct: The human ZnT8 cDNA insert was further subcloned into a pcDNA5/FRT/TO expression vector; made in house
T1 sequence (Q8IWU4 1-320 isoform Q8IWU4-2 R276W): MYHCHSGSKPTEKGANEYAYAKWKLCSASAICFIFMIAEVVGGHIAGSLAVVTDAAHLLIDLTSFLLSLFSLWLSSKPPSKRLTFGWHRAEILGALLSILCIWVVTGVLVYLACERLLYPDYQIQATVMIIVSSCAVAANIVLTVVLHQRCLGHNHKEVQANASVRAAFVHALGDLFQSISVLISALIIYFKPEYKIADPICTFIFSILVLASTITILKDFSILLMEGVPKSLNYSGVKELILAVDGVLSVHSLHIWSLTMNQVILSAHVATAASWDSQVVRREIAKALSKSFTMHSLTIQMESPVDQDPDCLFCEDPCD
Experimental: (§1) 24 hour after induction, early-passage cells (passage number <10) at 90% confluence were scraped on ice and collected in the assay buffer supplemented with complete mini EDTA free protease cocktail tablets as specified by the manufacturer (Sigma). Cell suspension was homogenized by 40 passages through a high-shear fluid processor at 120 psi (Microfluidics), and then the membrane fraction was pelleted by ultracentrifugation at 258k×g for 60 min. The membrane pellet was re-suspended in a solubilization buffer (assay buffer plus 25% glycerol). DDM was added to solubilize the membrane according to the weight of the membrane pellet at a DDM-to-membrane ratio of 1:5 (wt/wt). The membrane crude extract was cleared off debris by ultracentrifugation at 258k×g for 15 min. The supernatant was applied to Talon affinity resins (GE Healthcare) and incubated at 8° C. on a rotary shaker for 45 min. The resin was then minimally washed by solubilization buffer supplemented with 25 mM imidazole, and then the immobilized ZnT8 variant was eluted by increasing the imidazole concentration to 250 mM. The molecular identity of the eluted ZnT8 variant was validated by western blotting using two antibodies to the C-terminal His-tag (Cell signaling Technology, cat. #2365S, catalog number, 1:1000 dilution) and to a linear peptide epitope (Proteintech, cat. #16169-1-AP, 1:500 dilution), respectively. The purity of the eluted proteins was assessed by SDS-PAGE with imperial protein staining (Thermo Scientific). Preformed liposomes with a defined lipid composition as indicated were prepared by mixing stock solutions of lipids in chloroform. The lipid mixture was dried under a stream of nitrogen gas, and traces of chloroform were removed by placing the lipids under vacuum overnight at room temperature. Dried lipids were rehydrated in a Pyrex borosilicate glass tube with assay buffer to a lipid concentration of 50 mg/ml, and then sonicated in a cup-horn sonicator at 100 W for 2 min (cycles of 10 son, 10 s off) in an ice-chilled water bath. The resulting liposome suspension was diluted with assay buffer to a final lipid concentration of 7.5 mg/ml with DDM added at a DDM/lipids ratio of 1:1 (wt/wt). The DDM-liposome mixture was incubated at room temperature on a rotary shaker for ˜3 hours until a gel-like appearance occurred. Reconstitution of ZnT8 variants took place immediately after eluted from Talon resins by mixing a ZnT8 variant, or an equal volume of elution buffer, with DDM-destabilized preformed liposomes at an estimated protein-to-lipid wt/wt ratio of 1:200. The reconstitution mixture was incubated on a rotary shaker at 8° C. for 1 hr, then freshly prepared, methanol-washed polystyrene beads (Bio-Beads, SM-2, Bio-Rad) were added to the reconstitution mixture in a 60:1 wt/wt ratio to DDM. After incubation overnight at 8° C., the resulting proteoliposomes or liposomes (negative control) were separated from the detergent-soaked polystyrene beads, and pelleted by ultracentrifugation (258k×g, 2 hr). […]
(§2) Experiments were performed at 8° C. on a SFM-3000 stopped-flow apparatus (Bio-logic). […] The reactants were excited at 490 nm, and emissions were monitored at 525 nm using a 10 nm bandpass cut-off filter. Kinetic traces were recorded over a time course of 10 seconds with instrument offset and gain kept constant for all the experiments. […]

human ZnT8 R325 (R-form) = target: T2, human ZnT8 R325 (R-form) (Homo sapiens, UniProt Q8IWU4); experiment: Stopped-flow zinc transport kinetics in reconstituted proteoliposomes (Fluozin-3), R325 variant; assay type: biochemical; details: for effect on zinc transport activity (Vmax), R-form: lipid in reconstituted proteoliposomes, reference level = Vmax of the AA-form; for increase of Vmax, R-form: third anionic phospholipid added to DOPC:DOPE (2:1), giving 2:1:1
T2 construct: The human ZnT8 cDNA insert was further subcloned into a pcDNA5/FRT/TO expression vector; made in house
T2 sequence (Q8IWU4 1-320 isoform Q8IWU4-2): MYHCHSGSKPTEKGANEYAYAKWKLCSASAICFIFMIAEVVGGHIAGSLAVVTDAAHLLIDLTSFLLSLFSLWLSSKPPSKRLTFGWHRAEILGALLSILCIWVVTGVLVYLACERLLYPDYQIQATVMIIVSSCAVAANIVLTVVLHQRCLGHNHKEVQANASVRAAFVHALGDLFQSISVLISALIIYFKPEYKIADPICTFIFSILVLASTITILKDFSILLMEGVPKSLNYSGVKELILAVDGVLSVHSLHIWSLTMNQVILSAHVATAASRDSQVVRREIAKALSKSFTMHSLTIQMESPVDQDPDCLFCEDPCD
Experimental: as §1, §2

HEK293 cells = experiment: Vesicular zinc uptake in real time (Zinpyr-1, 96-well microplate); assay type: cell-based, human; details: 383 nM free zinc, 1 uM pyrithione, 15° C., induced expression
Experimental: The free zinc concentration in the ADA-EGTA dual buffering system was calculated using maxchelator (maxchelator.stanford.edu). Induced cells were loaded with Zinpry-1, trypsinized, resuspended in an ice-chilled plain uptake buffer with no ZnSO4 added. Cells with the expression of each ZnT8 variant or the empty vector were counted, adjusted to a density of 4×10^6 cells/ml, and dispensed in 50-[…] aliquots to a clear-bottom 96-well microplate (Greiner bio-one). Initial Zinpry-1 fluorescence (F0) was recorded from the bottom on a Flexstation-3 microplate reader (Molecular dynamics), and then zinc-uptakes were initiated by adding 50 ul uptake buffers with 2× free zinc concentrations to each well. The Zinpry-1 fluorescence increases in response to various free zinc concentrations were recorded at 15° C. in the kinetic mode of Flexstation over a time course of 10 min and normalized to Zinpyr-1 loading (F0). The fluorescence responses reached a linear phase in 2 min after the uptake temperature approached equilibrium. The rates of zinc uptake were calculated by linear regression of the Zinpyr-1 signals from 2 to 10 min. All measurements were performed in 12 replicates, and fluorescence readings were obtained by averaging over 8-10 measurements that gave consistent results. Most aberrant measurements occurred in the first and last two columns of the microplate due to pipetting errors.

[1] = target: T3, human ZnT8 AA-form (H220A, D224A) (Homo sapiens, UniProt Q8IWU4, D224A/H220A); experiment: Stopped-flow zinc transport kinetics in reconstituted proteoliposomes (Fluozin-3), AA-form; assay type: biochemical
T3 construct: The human ZnT8 cDNA insert was further subcloned into a pcDNA5/FRT/TO expression vector; made in house
T3 sequence (Q8IWU4 1-320 isoform Q8IWU4-2 H171A/D175A): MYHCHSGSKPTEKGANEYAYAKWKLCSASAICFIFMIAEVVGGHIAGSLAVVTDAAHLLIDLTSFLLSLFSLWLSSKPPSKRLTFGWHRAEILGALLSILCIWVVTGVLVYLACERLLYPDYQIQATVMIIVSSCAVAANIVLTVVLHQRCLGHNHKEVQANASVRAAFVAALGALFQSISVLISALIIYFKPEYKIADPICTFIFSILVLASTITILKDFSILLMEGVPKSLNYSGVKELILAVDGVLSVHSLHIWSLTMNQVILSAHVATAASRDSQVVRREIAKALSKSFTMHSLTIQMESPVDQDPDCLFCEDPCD
Experimental: 24 hour after induction, early-passage cells (passage number <10) at 90% confluence were scraped on ice and collected in the assay buffer supplemented with complete mini EDTA free protease cocktail tablets as specified by the manufacturer (Sigma). Cell suspension was homogenized by 40 passages through a high-shear fluid processor at 120 psi (Microfluidics), and then the membrane fraction was pelleted by ultracentrifugation at 258k×g for 60 min. The membrane pellet was re-suspended in a solubilization buffer (assay buffer plus 25% glycerol). DDM was added to solubilize the membrane according to the weight of the membrane pellet at a DDM-to-membrane ratio of 1:5 (wt/wt). The membrane crude extract was cleared off debris by ultracentrifugation at 258k×g for 15 min. The supernatant was applied to Talon affinity resins (GE Healthcare) and incubated at 8° C. on a rotary shaker for 45 min. […] The purity of the eluted proteins was assessed by SDS-PAGE with imperial protein staining (Thermo Scientific). […]
as §2

| Molecule | effect on zinc transport activity (Vmax), W-form (human ZnT8 W325 (W-form)) | effect on zinc transport activity (Vmax), R-form (human ZnT8 R325 (R-form)) | increase of Vmax, W-form (human ZnT8 W325 (W-form)) [fold] | increase of Vmax, R-form (human ZnT8 R325 (R-form)) [fold] | further results |
| --- | --- | --- | --- | --- | --- |
| CCCCCCCC/C=C\CCCCCCCC(=O)OC[C@H](COP(=O)(O)OCCN)OC(=O)CCCCCCC/C=C\CCCCCCCC [DOPE, 1,2-di-(9Z-octadecenoyl)-sn-glycero-3-phosphoethanolamine] | modest effects | progressively reduced the Vmax |  |  |  |
| CCCCCCCC/C=C\CCCCCCCC(=O)OC[C@H](COP(=O)(O)OCC(O)CO)OC(=O)CCCCCCC/C=C\CCCCCCCC (stereo partly shown) [DOPG] |  |  | 2.0 | 6.1 |  |
| CCCCCCCC/C=C\CCCCCCCC(=O)OC[C@H](COP(=O)(O)OC[C@H](N)C(=O)O)OC(=O)CCCCCCC/C=C\CCCCCCCC [DOPS, 1,2-dioleoyl-sn-glycero-3-phospho-L-serine] |  |  | 2.3 | 3.5 |  |
| CC(C)CCC[C@@H](C)[C@H]1CC[C@H]2[C@@H]3CC=C4C[C@@H](O)CC[C@]4(C)[C@H]3CC[C@]12C [cholesterol] | below the reference level of the AA-form; also recorded: strongly inhibit | below the reference level of the AA-form; also recorded: strongly inhibit |  |  |  |
| Lysophosphatidylcholine [LPC] | below the reference level of the AA-form; also recorded: strongly inhibit | below the reference level of the AA-form; also recorded: strongly inhibit |  |  |  |
| AA-form: His-tagged human ZnT8 with H220A, D224A double mutation of the predicted transport-site (protein, UniProt Q8IWU4 1-369, looked up, variant H220A D224A, His tag, His-tagged human ZnT8 with H220A, D224A double mutation of the predicted transport-site) Proton-coupled zinc …: MEFLERTYLVNDKAAKMYAFTLESVELQQKPVNKDQCPRERPEELESGGMYHCHSGSKPTEKGANEYAYAKWKLCSASAICFIFMIAEVVGGHIAGSLAVVTDAAHLLIDLTSFLLSLFSLWLSSKPPSKRLTFGWHRAEILGALLSILCIWVVTGVLVYLACERLLYPDYQIQATVMIIVSSCAVAANIVLTVVLHQRCLGHNHKEVQANASVRAAFVAALGALFQSISVLISALIIYFKPEYKIADPICTFIFSILVLASTITILKDFSILLMEGVPKSLNYSGVKELILAVDGVLSVHSLHIWSLTMNQVILSAHVATAASRDSQVVRREIAKALSKSFTMHSLTIQMESPVDQDPDCLFCEDPCD |  |  |  |  | rate of vesicular zinc accumulation (HEK293 cells): significantly faster than the basal level of Blk; Km increase compared to the R-form [1]: 24 fold; Vmax/Km decrease compared to the R-form [1]: 59 fold |
